Patent US8029814B2, “Male produced pheromone in Tetropium fuscum (F.) and Tetropium cinnamopterum (kirby) (coleoptera: cerambycidae)” (Her Majesty the Queen in Right of Canada as represented by …, priority 2007, dated 2011)
Entries after “also recorded” stand apart in the source; their conditions may differ.

Legend:
T. fuscum antennae = experiment: Electroantennogram (EAG) antennal stimulation; set-up: species or system Tetropium fuscum; conditions: EAG puffs ca. 30 ng source concentration
Procedure: (§1) Extracts ([…] in hexane) and synthetics (30 ng fuscumol) were tested for antennal stimulation of T. fuscum and T. cinnamopterum males and females using an electroantennogram (EAG) system and EAG/GC-EAD signal recording (IDAC-232) and analysis software v.2.6 (SYNTECH, The Netherlands). Antennae from males and females were excised close to the head and used intact with SPECTRA-60™ gel (electrode gel) (Parker, USA) for electrical contact.
(§2) Extracts (ca.1 male equivalent in hexane) and synthetics (30 ng fuscumol) were tested for antennal stimulation of T. fuscum and T. cinnamopterum males and females using an electroantennogram (EAG) system and EAG/GC-EAD signal recording (IDAC-232) and analysis software v.2.6 (SYNTECH, The Netherlands). Antennae from males and females were excised close to the head and used intact with Spectra©-60 gel (Parker, USA) for electrical contact.

T. cinnamopterum = experiment: Field trapping, Colossus traps, McNabs Island, Halifax, 2006; type: in vivo, Tetropium cinnamopterum
From the text: (§3) FIG. 3. Mean number (+SE) of male and female T. fuscum (a) and T. cinnamopterum (b) captured in COLOSSUS TRAPS™ (insect traps) baited with synthetic pheromone candidate (P), host volatile lures (HV), P plus host volatiles (P+HV), or un-baited traps, over the entire 8-week trapping period. […] Data for T. fuscum males and females and T. cinnamopterum females were transformed by log (y+1); data for the catch of T. cinnamopterum males were transformed by square root.
(§4) The synthetic pheromone, alone and in combination with host volatile attractants, was tested in a field experiment on McNabs Island, Halifax, Nova Scotia, from 5 Jul. to 29 Aug. 2006, using COLOSSUS TRAPS™ (insect traps) (PheroTech Inc. Delta, British Columbia) (Sweeney et al. 2006)^4. Unbaited traps and traps baited with host volatiles alone served as controls, for a total of four treatments. Treatments were replicated 15 times in a randomized complete block design with 30 m between traps and blocks. Each trap was suspended from a rope tied between two conifers separated by at least 2 m, with the collecting bucket 10-20 cm above the ground. […] Pheromone was dispensed at ca. initially 800 μg/d dropping to 50 μg/d over a 4 week period (determined by weight loss at 23° C.) from a polymerase chain reaction (PCR) sample tube (Axygen Scientific Inc., CA) (0.2-mL thick) with a 1 mm diam. hole drilled in the cap. […]

[1] = test system: T. cinnamopterum antennae; experiment: Electroantennogram (EAG) antennal stimulation; set-up: species or system Tetropium cinnamopterum; conditions: EAG puffs ca. 30 ng source concentration
Procedure: as §1, §2

T. fuscum [2] = experiment: Field trapping, Colossus traps, McNabs Island, Halifax, 2006; type: in vivo, Tetropium fuscum; conditions: female and male T. fuscum; compared with host volatiles alone or unbaited traps; 8-week trapping
From the text: as §3, §4

T. castaneum [3] = experiment: Field trapping of fuscumol enantiomers, APT Intercept traps, Bialowieza, Poland, 2007; type: in vivo, Tetropium castaneum; conditions: in the presence of host volatiles and ethanol
From the text: (§5) FIG. 4. Mean catch of a. Tetropium fuscum and b. T. castaneum in APT INTERCEPT TRAPS™ (insect traps) baited with synthetic fuscumol (pure S—, pure R—, or racemic) alone and combined with host volatile lures (SB=spruce blend, a blend of monoterpenes in an ultra high release rate (UHR) lure; E=ethanol in an UHR lure) in Bialowieza, Poland in 2007.
Trapping experiments were run in 2007 in Halifax, NS, and Bialowieża, Poland to test the response of Tetropium species to fuscumol, a sex pheromone emitted by male Tetropium fuscum (F.) and male T. cinnamopterum. […] Male T. fuscum emit primarily S-fuscumol so we hypothesized that a synthetic lure of pure S-fuscumol would be more attractive than pure R-fuscumol, and possibly more attractive than racemic fuscumol, especially if R-fuscumol was the major pheromone component of a sympatric sibling species such as T. castaneum. The ultimate objective was to determine if we could improve the efficacy of the lure for use in applications for survey and control of T. fuscum. Conducting the experiment in Poland allowed us to test the response of a different population of T. fuscum from that in Halifax and also to determine the attraction of the pheromone lures to another potentially invasive species, T. castaneum. […]

T. castaneum [4] = experiment: Trapping with low, medium or high release of racemic fuscumol or fuscumate plus SB and E lures (FIG. 13); type: in vivo, Tetropium castaneum; conditions: added to spruce volatile (SB) and ethanol (E) lures
Procedure: FIG. 13 Mean catch of T. castaneum in traps baited with low (1 mg/d), medium (4 mg/d) or high (32 mg/d) of racemic fuscumol plus spruce volatile (SB) and ethanol (E) lures.

T. fuscum [5] = experiment: Field trapping of fuscumol enantiomers, APT Intercept traps, Bialowieza, Poland, 2007; type: in vivo, Tetropium fuscum
From the text: as §5
Trapping experiments were run in 2007 in Halifax, NS, and Bialowieża, Poland to test the response of Tetropium species to fuscumol, a sex pheromone emitted by male Tetropium fuscum (F.) and male T. cinnamopterum. […] Male T. fuscum emit primarily S-fuscumol so we hypothesized that a synthetic lure of pure S-fuscumol would be more attractive than pure R-fuscumol, and possibly more attractive than racemic fuscumol, especially if R-fuscumol was the major pheromone component of a sympatric sibling species such as T. castaneum. The ultimate objective was to determine if we could improve the efficacy of the lure for use in applications for survey and control of T. fuscum. Conducting the experiment in Poland allowed us to test the response of a different population of T. fuscum from that in Halifax and also to determine the attraction of the pheromone lures to another potentially invasive species, T. castaneum.
There were eight different lure treatments: S-fuscumol; R-fuscumol; racemic fuscumol; S-fuscumol+UHR (ultra high release rate) spruce blend lure+UHR ethanol lure; R-fuscumol+UHR spruce blend lure+UHR ethanol lure; racemic fuscumol+UHR spruce blend lure+UHR ethanol lure; UHR spruce blend lure+UHR ethanol lure; and unbaited controls.
On McNabs Island near Halifax, NS, COLOSSUS TRAPS™ (insect traps) were used with 15 replicates per treatment and in Bialowieża, APT (Advanced Pheromone Technologies) INTERCEPT TRAPS™ (insect traps) were used with 9 replicates per treatment. The treatments were laid out in randomized complete block designs with 30 m spacing between traps. Traps were out from 15 May to 27 Jun. 2007 on McNabs Island and from 30 Apr. to 25 Jun. 2007 in Bialowieża. […]

T. fuscum [6] = experiment: Trapping with low, medium or high release of racemic fuscumol or fuscumate plus SB and E lures (FIG. 14); type: in vivo, Tetropium fuscum; conditions: added to spruce volatile (SB) and ethanol (E) lures
Procedure: FIG. 14 Mean catch of T. fuscum in traps baited with low (1 mg/d), medium (4 mg/d) or high (32 mg/d) of racemic fuscumol plus spruce volatile (SB) and ethanol (E) lures.

For `CC(C)=CCC/C(C)=C/CCC(C)O` (racemic) [racemic fuscumol, (E)-6,10-dimethyl-5,9-undecadien-2-ol], the “antennal response in females relative to males” value (T. fuscum antennae) was 2-3 times, the “antennal response (EAG)” value (T. fuscum antennae; females, n=5) was 6.05 ± 0.3 mV and the “trap catch compared with unbaited traps” value (T. cinnamopterum; T. cinnamopterum, fuscumol alone) was “did not differ from that in unbaited traps”. For the same compound, the “response of male T. cinnamopterum” value (T. cinnamopterum; males) was “Lack of response”, the “antennal response in females relative to males” value [1] was 2-3 times and the “antennal response (EAG)” value ([1]; females, n=5) was 1.7 ± 0.2 mV. The “trap catch compared among lure treatments” value (T. fuscum [2]) was “did not differ from that in unbaited traps”, the “attraction of T. castaneum” value (T. castaneum [3]) was “attracted” and the “catch compared to SB+E” value (T. castaneum [4]) was “significantly increased catch”.

With `CC(C)=CCC/C(C)=C/CC[C@@H](C)O` [R-fuscumol] the “attraction of T. fuscum to S-fuscumol in the presence of R-fuscumol” value (T. fuscum [5]; racemic versus S-fuscumol) was “not reduced”.

In the case of `CC(C)=CCC/C(C)=C/CC[C@H](C)O` [S-fuscumol, (2S, 5E)-6,10-dimethyl-5,9-undecadien-2-ol], the “attractiveness compared with R-fuscumol or an unbaited trap” value (T. fuscum [5]; without host volatile lures) is reported as “significantly more attractive”, the “mean catch compared with racemic fuscumol” value (T. fuscum [5]; without host volatile lures) is reported as “did not differ significantly” and the “attraction of T. castaneum” value (T. castaneum [3]) is reported as “attracted”.

In the case of `CC(=O)OC/C=C(\C)CCC=C(C)C` [fuscumate, geranyl acetate], the “catch compared to SB+E” value (T. fuscum [6]) is reported as “did not boost catch; also recorded: no effect on attraction” and the “catch compared to SB+E” value (T. castaneum [4]) is reported as “did not boost catch; also recorded: no effect on attraction”.
